“Also recorded” adds a separate entry of the source.
What was measured:
[1] = test system: uninfected parent cell line CEM; experiment: Cell membrane integrity / viability, uninfected parent cells; format: cell-based, human; conditions: incubation and withdrawal, FIG. 12B
Method: (§1) FIGS. 12A and B show the loss of cell membrane integrity suffered by HIV-1 producing ACH-2 cells and their uninfected parent cell line CEM during incubation with and after withdrawal of mimosine and HK-1. The black bar indicates the duration of inhibitor exposure, the open bar the duration of inhibitor withdrawal. Cell membrane integrity was determined by the ability of the cells to exclude the low-molecular weight dye trypan blue (FIGS. 12A and B) and to retain the spermidine-derived radioactive label of a single, obligatory intracellular protein species, eIF-5A and its deoxyhypusyl precursor (FIG. 12A).
(§2) ACH-2 cells were incubated with hypusine inhibitors (mimosine, HK-1) and induced with PMA as outlined in Example II A, except that the duration of exposure to inhibitor was extended to 18-21 hours and that cells were labeled as detailed in Example I B. Half of the cells were then harvested and processed for detection of apoptosis, while the other half was washed free of inhibitors and re-incubated in fresh medium for 2-4 hours, followed by harvesting and processing for detection of […] apoptosis. Using the same protocol, cultures of the parent CEM cell line were incubated in parallel. […]

[2] = test system: HIV-1 infected ACH-2 cells; experiment: Flow cytometry of genomic DNA 3'-ends (apoptosis), HIV-1 infected cells; format: cell-based, human; conditions: for fragmentation of genomic DNA / number of DNA 3'-ends, ACH-2: FIG. 13
Method: FIGS. 13A-F show the flowcytometrically determined distribution of the number of fluorescently labeled 3'-ends in the genomic DNA of HIV-1 producing ACH-2 cells ("ACH-2") and their uninfected parent cell line CEM ("CEM"), both receiving no treatment ("NT") or treatment for 18 hours with either 200 μM mimosine ("MIM") or 200 μM HK-1 ("HK1"). […] This is the hallmark of irreversible auto-destruction of a cell's genetic library.
FIGS. 14A-H show the flowcytometrically determined distribution of the number of fluorescently labeled 3'-ends in the genomic DNA of HIV-1 producing ACH-2 cells ("ACH-2") and of their uninfected parent cell line CEM ("CEM"), both receiving no treatment ("NT") or treatment for 18 hours with 200 μM mimosine ("MIM"), followed by inhibitor withdrawal and reincubation in fresh medium for 2 hours.
ACH-2 cells were incubated with hypusine inhibitors (mimosine, HK-1) and induced with PMA as outlined in Example II A, except that the duration of exposure to inhibitor was extended to 18-21 hours and that cells were labeled as detailed in Example I B. Half of the cells were then harvested and processed for detection of apoptosis, while the other half was washed free of inhibitors and re-incubated in fresh medium for 2-4 hours, followed by harvesting and processing for detection of […] apoptosis. Using the same protocol, cultures of the parent CEM cell line were incubated in parallel. For assessment of apoptosis, cell viability was measured by exclusion of the dye trypan blue, by retention of the ^3 H-spermidine-derived intracellular radioactivity incorporated into the obligatory intracellular protein eIF-5A, and by direct fluorescence detection of the intemucleosomal degradation of genomic DNA. Such irreversible genome degradation signals the activation of pre-programmed suicide mechanisms within any cell, which is the hallmark of apoptosis, and inescapably results in cell death [Compton, Cancer Metast. 11, 105-119 (1992), which is hereby incorporated by reference]. For the latter method, a commercially available kit was used (Oncor, Gaithersburg, Md.). Flow cytometric analysis of apoptotic cells was performed in accord with standard procedures.

[3] = test system: cellular protein TNF-α; experiment: TNF-α biosynthesis and secretion (ELISA) in PMA-induced ACH-2 cells; format: cell-based, human; conditions: 200 μM, PMA-induced ACH-2, FIG. 10
[4] = test system: HIV-1 infected ACH-2 cells; experiment: Cell membrane integrity (trypan blue exclusion, retention of labeled eIF-5A), HIV-1 infected cells; format: cell-based, human; conditions: during 18-21 h incubation and 2-4 hours after withdrawal, FIGS. 12A and B
Method: as §1, §2

[5] = test system: viral p24 antigen, ACH-2 cells; experiment: p24 antigen levels (ELISA) in PMA-induced ACH-2 cells; format: cell-based, HIV-1; conditions: 200 μM, PMA-induced ACH-2, FIG. 10
Method: 142, 431-438 (1989), which is hereby incorporated by reference]. However, vigorous HIV-1 production by ACH-2 cells is induced by addition of the phorbol ester PMA [Pomerantz et al., Cell 61, 1271-1276 (1990) and Michael et al., J. Virol 65, 1291-1303 (1991), which are hereby incorporated by reference]. This system was selected for these experiments. Logarithmically growing ACH-2 cells, suspended at a concentration of 3×10^5 /ml, were incubated with the hypusine inhibitors mimosine and HK-1 at a final concentration of 200 μM. After 8 hours, viral replication was activated by addition of PMA to these cells and to untreated controls (100 ng/ml final PMA concentration). […] An aliquot of each fraction was analyzed by slot blotting, using the pXC-1 genomic ribosomal DNA probe from rat containing the 18S rRNA coding sequence [Rimarachin, Szabo et al., In Vitro 28A, 705-707 (1992), which is hereby incorporated by reference], to determine the location within the gradient of 18S rRNA, i.e., the distribution of polysomes vs. monosomes. […] Following electrophoresis, the radio-labeled PCR products were visualized by autoradiography according to routine techniques, and the band intensities quantified by densitometric analysis and expressed relative to total product per gradient. […]

| Compound | cell membrane integrity / viability, uninfected CEM [1] | fragmentation of genomic DNA / number of DNA 3'-ends, ACH-2 ([2]; 200 μM, 18 hours) | TNF-α biosynthesis and secretion [3] | cell membrane integrity, HIV-1 producing ACH-2 [4] | viral p24 antigen in cells and supernatant [5] | DNA fragmentation after withdrawal, ACH-2 ([2]; 200 μM 18 hours, then 2 hours after withdrawal, FIG. 14) | second population (higher amount of 3'-ends) position, ACH-2 ([2]; 200 μM, 18 hours, FIG. 14) [channel] | average fluorescence peak position, ACH-2 ([2]; 200 μM, 18 hours, FIG. 14, control around channel 100) [channel] |
| --- | --- | --- | --- | --- | --- | --- | --- | --- |
| Cc1c(O)c(=O)ccn1C [HK-1, 1,2-dimethyl-3-hydroxypyrid-4-one] | no such loss of membrane integrity was noted | triggered fragmentation of the genomic DNA; also recorded: increase of the number of 3'-ends in their DNA | absence of such a suppressive effect | the most marked, uniform and rapid decline of membrane integrity developed 2-4 hours after inhibitor withdrawal | suppressive effect |  |  |  |
| N[C@@H](Cn1ccc(=O)c(O)c1)C(=O)O [L-Mimosine] | no such loss of membrane integrity was noted | triggered fragmentation of the genomic DNA; also recorded: increase of the number of 3'-ends in their DNA | absence of such a suppressive effect | the most marked, uniform and rapid decline of membrane integrity developed 2-4 hours after inhibitor withdrawal | suppressive effect | this population did not decrease, but rather became the predominant one; also recorded: Within the 2 hours of release, this shift increased markedly | ~210 | 140 |

Reference: US5849587A, “Method of inhibiting viral replication in eukaryotic cells and of inducing apoptosis of virally-infected cells” (Cornell Research Foundation, Inc., priority 1995, dated 1998)
